Data taken from ChEMBL document CHEMBL4392881, “Noursamycins, Chlorinated Cyclohexapeptides Identified from Molecular Networking of Streptomyces noursei NTR-SR4” (2019).
In brackets after ≈: the same amount, converted by molar mass.

Experiments:
Staphylococcus aureus [1] = test: Antibacterial activity against mulitdrug-resistant Staphylococcus aureus JMRC:ST:33793 assessed as diameter of colonies in inhibition zone by agar diffusion test (reference value: 0 millimeter); type: functional
Bacillus subtilis [2] = test: Antibacterial activity against Bacillus subtilis JMRC:STI:10880 assessed as diameter of clear inhibition zone by agar diffusion test (reference value: 0 millimeter); type: functional
Escherichia coli [3] = test: Antibacterial activity against Escherichia coli JMRC:ST:33699 assessed as diameter of clear inhibition zone by agar diffusion test (reference value: 0 millimeter); type: functional
Escherichia coli [4] = test: Antibacterial activity against Escherichia coli DSM 1116 measured after 20 hrs; type: functional; settings: DSM 1116, 20 h
Mycolicibacterium vaccae [5] = test: Antibacterial activity against Mycobacterium vaccae JMRC:STI:10670 assessed as diameter of clear inhibition zone by agar diffusion test (reference value: 0 millimeter); type: functional
Enterococcus faecalis = test: Antibacterial activity against vancomycin-resistant Enterococcus faecalis JMRC:ST:33700 assessed as diameter of promotion of inhibition zone by agar diffusion test (reference value: 0 millimeter); type: functional
Staphylococcus aureus [6] = test: Antibacterial activity against mulitdrug-resistant Staphylococcus aureus JMRC:ST:33793 assessed as diameter of clear inhibition zone by agar diffusion test (reference value: 0 millimeter); type: functional
Pseudomonas aeruginosa [7] = test: Antibacterial activity against Pseudomonas aeruginosa JMRC:ST:337721 assessed as diameter of clear inhibition zone by agar diffusion test (reference value: 0 millimeter); type: functional
Escherichia coli [8] = test: Antibacterial activity against Escherichia coli BW25113 measured after 20 hrs; type: functional; settings: BW25113, 20 h
Bacillus subtilis [9] = test: Antibacterial activity against Bacillus subtilis DSM10 measured after 20 hrs; type: functional; settings: DSM10, 20 h
[10] = tested on: Sporobolomyces salmonicolor; test: Antifungal activity against Sporobolomyces salmonicolor JMRC:ST:35974 assessed as diameter of colonies in inhibition zone by agar diffusion test (reference value: 10 millimeter); type: functional
Penicillium chrysogenum [11] = test: Antifungal activity against Penicillium notatum JMRC:STI:50164 assessed as diameter of clear inhibition zone by agar diffusion test (reference value: 10 millimeter); type: functional
Candida albicans = test: Antifungal activity against Candida albicans JMRC:STI:25000 assessed as diameter of clear inhibition zone by agar diffusion test (reference value: 0 millimeter); type: functional
Pseudomonas aeruginosa [12] = test: Antibacterial activity against Pseudomonas aeruginosa JMRC:ST:33772 assessed as diameter of clear inhibition zone by agar diffusion test (reference value: 0 millimeter); type: functional
Salmonella typhimurium = test: Antibacterial activity against Salmonella typhimurium TA100 measured after 20 hrs; type: functional, Salmonella enterica subsp. enterica serovar Typhimurium; settings: Salmonella enterica, TA100, 20 h
Staphylococcus aureus [13] = test: Antibacterial activity against Staphylococcus aureus JMRC:ST:10760 assessed as diameter of clear inhibition zone by agar diffusion test (reference value: 0 millimeter); type: functional
Mycolicibacterium phlei = test: Antibacterial activity against Mycobacterium phlei DSM 750 measured after 20 hrs; type: functional; settings: DSM 750, 20 h
Micrococcus luteus = test: Antibacterial activity against Micrococcus luteus DSM 1790 measured after 20 hrs; type: functional; settings: DSM 1790, 20 h
Mycolicibacterium vaccae [14] = test: Antibacterial activity against Mycobacterium vaccae JMRC:STI:10670 assessed as diameter of colonies in inhibition zone by agar diffusion test (reference value: 0 millimeter); type: functional
Penicillium chrysogenum [15] = test: Antifungal activity against Penicillium notatum JMRC:STI:50164 assessed as diameter of colonies in inhibition zone by agar diffusion test (reference value: 10 millimeter); type: functional

Structure (SMILES): CC[C@@H](C)[C@@H]1NC(=O)[C@@H](CC(C)C)NC(=O)[C@@H](C(C)C)NC(=O)[C@H](Cc2c[nH]c3ccc(Cl)cc23)NC(=O)[C@@H]([C@H](O)C(N)=O)NC(=O)[C@H](CCCN)NC1=O
- diameter of the inhibition zone (DIZ) (Staphylococcus aureus [1]): 15 mm
- diameter of the inhibition zone (DIZ) (Bacillus subtilis [2]): 16 mm
- diameter of the inhibition zone (DIZ) (Escherichia coli [3]): 0 mm
- MIC (Escherichia coli [4]): ≥ 64 µg/mL
- diameter of the inhibition zone (DIZ) (Mycolicibacterium vaccae [5]): 22 mm
- diameter of the inhibition zone (DIZ) (Enterococcus faecalis): 16 mm
- diameter of the inhibition zone (DIZ) (Staphylococcus aureus [6]): 13 mm
- diameter of the inhibition zone (DIZ) (Pseudomonas aeruginosa [7]): 10 mm
- MIC (Escherichia coli [8]): ≥ 64 µg/mL
- MIC (Bacillus subtilis [9]): 32 µg/mL (≈ 40.5 µM)
- diameter of the inhibition zone (DIZ) [10]: 12 mm
- diameter of the inhibition zone (DIZ) (Penicillium chrysogenum [11]): 0 mm
- diameter of the inhibition zone (DIZ) (Candida albicans): 0 mm
- diameter of the inhibition zone (DIZ) (Pseudomonas aeruginosa [12]): 0 mm
- MIC (Salmonella typhimurium): 32 µg/mL (≈ 40.5 µM)
- diameter of the inhibition zone (DIZ) (Staphylococcus aureus [13]): 18 mm
- MIC (Mycolicibacterium phlei): 32 µg/mL (≈ 40.5 µM)
- MIC (Micrococcus luteus): 32 µg/mL (≈ 40.5 µM)

Structure (SMILES): CC[C@@H](C)[C@@H]1NC(=O)[C@@H](Cc2ccccc2)NC(=O)[C@@H](C(C)C)NC(=O)[C@H](Cc2c[nH]c3ccc(Cl)cc23)NC(=O)[C@@H]([C@H](O)C(N)=O)NC(=O)[C@H](CCCN)NC1=O
- diameter of the inhibition zone (DIZ) (Bacillus subtilis [2]): 18 mm
- diameter of the inhibition zone (DIZ) (Escherichia coli [3]): 10 mm
- MIC (Escherichia coli [4]): ≥ 64 µg/mL
- diameter of the inhibition zone (DIZ) (Mycolicibacterium vaccae [5]): 21 mm
- diameter of the inhibition zone (DIZ) (Enterococcus faecalis): 18 mm
- diameter of the inhibition zone (DIZ) (Staphylococcus aureus [6]): 18 mm
- diameter of the inhibition zone (DIZ) (Pseudomonas aeruginosa [7]): 10 mm
- MIC (Escherichia coli [8]): ≥ 64 µg/mL
- diameter of the inhibition zone (DIZ) (Mycolicibacterium vaccae [14]): 26 mm
- MIC (Bacillus subtilis [9]): 4 µg/mL (≈ 4.85 µM)
- diameter of the inhibition zone (DIZ) [10]: 12 mm
- diameter of the inhibition zone (DIZ) (Penicillium chrysogenum [11]): 0 mm
- diameter of the inhibition zone (DIZ) (Candida albicans): 0 mm
- diameter of the inhibition zone (DIZ) (Pseudomonas aeruginosa [12]): 0 mm
- MIC (Salmonella typhimurium): 16 µg/mL (≈ 19.4 µM)
- diameter of the inhibition zone (DIZ) (Staphylococcus aureus [13]): 21 mm
- MIC (Mycolicibacterium phlei): 8 µg/mL (≈ 9.7 µM)
- MIC (Micrococcus luteus): 8 µg/mL (≈ 9.7 µM)

Structure (SMILES): C[C@@H]1[C@H](O)[C@@H](C)/C=C/C=C/C=C/C=C/C=C/C=C/C=C/[C@H](O[C@@H]2O[C@H](C)[C@@H](O)[C@H](N)[C@@H]2O)C[C@@H]2O[C@](O)(C[C@@H](O)C[C@@H](O)[C@H](O)CC[C@@H](O)C[C@@H](O)CC(=O)O[C@H]1C)C[C@H](O)[C@H]2C(=O)O [AMPHOTERICIN B]
- diameter of the inhibition zone (DIZ) [10]: 18 mm
- diameter of the inhibition zone (DIZ) (Candida albicans): 20 mm
- diameter of the inhibition zone (DIZ) (Penicillium chrysogenum [15]): 19 mm

Structure (SMILES): O=C(O)c1cn(C2CC2)c2cc(N3CCNCC3)c(F)cc2c1=O [CIPROFLOXACIN]
- MIC (Escherichia coli [4]): < 0.25 µg/mL
- diameter of the inhibition zone (DIZ) (Enterococcus faecalis): 17 mm
- MIC (Escherichia coli [8]): < 0.25 µg/mL
- diameter of the inhibition zone (DIZ) (Mycolicibacterium vaccae [14]): 21 mm
- MIC (Bacillus subtilis [9]): < 0.25 µg/mL
- MIC (Salmonella typhimurium): < 0.25 µg/mL
- MIC (Mycolicibacterium phlei): < 0.25 µg/mL
- MIC (Micrococcus luteus): < 0.25 µg/mL
